*1 amine or outer side, *2 acyl side, *3 side chain or, on linkers, in order; H or OH if unused. Where a SMILES comes first, the peptide text is derived from it. Bridges are numbered along the chain shown (N, C = ends). Roman numbers before positions name the chains, in order. [ ]: non-standard residue; d: D form. Actinocin(9to1) = Cc1c2oc3c(C)ccc(C(=O)[*:1])c3nc-2c(C(=O)[*:2])c(N)c1=O; NMeV = CN[C@H](C(=O)O)C(C)C; Sar = CNCC(=O)O

Our source for the Kd and binding values is PMC10352304 (2023).

Test [1] concerns CP (DNA, duplex) AGGTTGGTGAGTGATTGGAGGTT/AATCACTCACCAACCT
Put plainly: BIND strand displacement fluorescence, McGhee-von Hippel fit. The conditions noted are these: none (no metal cations), 1x TE, 37 °C, 20 nM CP, 10 nM invader I, per base.

Test [2] has as its system CP (C 18nt / P 11nt) (DNA, duplex) GGTGAGTGATTGGAGGTT/AATCACTCACC
Put plainly: BIND strand displacement fluorescence. The following applies: none (no metal cations); 1x TE, 37 °C; critical binder concentration scales with duplex length.

Test [3] concerns CP (DNA, duplex) AGGTTGGTGAGTGATTGGAGGTT/AATCACTCACCAACCT
Description: fluorescence turn-on. The following applies: 20 nM CP; site size 2.4; per base.

Test [4] concerns CP (C 28nt / P 21nt) (DNA, duplex) ACAAGAGGTTGGTGAGTGATTGGAGGTT/AATCACTCACCAACCTCTTGT
Put plainly: BIND strand displacement fluorescence. The following applies: none (no metal cations); 1x TE, 37 °C; critical binder concentration scales with duplex length.

For test [5], the system named is CP (DNA, duplex) AGGTTGGTGAGTGATTGGAGGTT/AATCACTCACCAACCT
Put plainly: BIND strand displacement fluorescence. The following applies: none (no metal cations); 1x TE, 37 °C; 20 nM CP, 10 nM invader I.

The subject of test [6] is CP (25% GC) (DNA, duplex) AATTCGATTAGCAATTGGAGGTT/AATTGCTAATCGAATT
Description: BIND strand displacement fluorescence, McGhee-von Hippel fit. The following applies: none (no metal cations); 1x TE, 37 °C; 20 nM CP, 10 nM invader I; per base.

The subject of test [7] is CP (75% GC) (DNA, duplex) GGGCTACGCGATGCGCGGAGGTT/GCGCATCGCGTAGCCC
The test is described as above. The conditions noted are these: none (no metal cations); 1x TE, 37 °C; 20 nM CP, 10 nM invader I; per base.

The subject of test [8] is sink probe 5'-TAAAT-3' (DNA, hairpin) CGATTTACAAAAAGTAAATCG
Put plainly: competitive BIND, sink against CP. The conditions noted are these: none (no metal cations); 1x TE, 37 °C; sink in up to 100-fold excess over CP.

Test [9] has as its system sink probe 5'-GCGCC-3' (DNA, hairpin) CGCGCGGCAAAAAGCCGCGCG
Put plainly: competitive BIND, sink against CP. The following applies: none (no metal cations); 1x TE, 37 °C; sink in up to 100-fold excess over CP.

In general, Kd refers to the free concentration of one partner at which half of the binding sites on the other are occupied at equilibrium, for simple one-to-one binding. Low readings indicate a tighter complex, high ones a looser complex. Turning to `CCCN(CCCN(C)C)c1cc(C=C2Sc3ccccc3N2C)c2ccccc2[n+]1-c1ccccc1`, the dissociation constant (Kd) in [1] (site size 2.6, b11 prints 7.1 nM) is 0.007 µM; in test [3] it was 0.0093 µM. Further, the binding result in [2] and in test [4] was “yes” throughout.

As to `[Ru+2].c1cnc2c(c1)ccc1cccnc12.c1cnc2c(c1)ccc1cccnc12.c1cnc2c(c1)ccc1cccnc12`, the binding result in test [5] was “weak”.

On to `Cc1c2oc3c(C)ccc(C(=O)N[C@@H]4C(=O)N[C@H](C(C)C)C(=O)N5CCC[C@H]5C(=O)N(C)CC(=O)N(C)[C@@H](C(C)C)C(=O)O[C@@H]4C)c3nc-2c(C(=O)N[C@@H]2C(=O)N[C@H](C(C)C)C(=O)N3CCC[C@H]3C(=O)N(C)CC(=O)N(C)[C@@H](C(C)C)C(=O)O[C@@H]2C)c(N)c1=O` (I: T[dV]P[Sar][NMeV] / II: T[dV]P[Sar][NMeV]; ester I:1-I:C, II:1-II:C; linker I:N-II:N via Actinocin(9to1)), for which the dissociation constant Kd in [6] was determined as 0.983 µM; in [7] it was 0.083 µM. The binding result in [8] is listed as “no”.

`CCN(CC)CCn1nc2c3c(cccc3c1=O)-c1ccccc1-2` yielded a Kd in test [1] (site size 1.3) of 0.212 µM.

In the case of `Cn1cc(NC(=O)c2cc(NC(=O)CN=C(N)N)cn2C)cc1C(=O)NCCC(=N)N`, the binding entry in [9] is “no”.

`c1ccc(C[n+]2cccc3ccccc32)cc1`: the binding entry in [5] is on record as “no”.
